In PubChem BioAssay AID1963858 (Molecular Pharmacology Branch, DTP, NCI, 2024):

Tested on: HOP-62 multicell spheroids with HUVEC/MSC, viability
Assay: Anticancer human tumor HOP-62 cell line growth inhibition [KRAS2];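 note: viability read after a week of compound exposure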;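 for viability, T/C: 100% = DMSO vehicle-treated spheroids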
Conditions: for IC50: curve of first compound; for viability, T/C: stronger effect = lower value
Method in brief: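 Combination screen of spheroid viability in tumor-cell co-cultures with endothelial (HUVEC) and mesenchymal stem cell stroma. Each agent was tested in half-log dilutions, topping at clinical Cmax or at 10 microM without a known Cmax.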

[1] = second compound 0.1 µM, first compound 0.0316 µM
[2] = second compound 0.1 µM, first compound 0.1 µM
[3] = second compound 0.1 µM, first compound 0.316 µM
[4] = second compound 0.1 µM, first compound 1 µM
[5] = second compound 0.1 µM, first compound 3.16 µM
[6] = second compound 0.1 µM, first compound 10 µM
[7] = second compound 0.316 µM, first compound 0.0316 µM
[8] = second compound 0.316 µM, first compound 0.1 µM
[9] = second compound 0.316 µM, first compound 0.316 µM
[10] = second compound 0.316 µM, first compound 1 µM
[11] = second compound 0.316 µM, first compound 3.16 µM
[12] = second compound 0.316 µM, first compound 10 µM
[13] = second compound 1 µM, first compound 0.0316 µM
[14] = second compound 1 µM, first compound 0.1 µM
[15] = second compound 1 µM, first compound 0.316 µM
[16] = second compound 1 µM, first compound 1 µM
[17] = second compound 1 µM, first compound 3.16 µM
[18] = second compound 1 µM, first compound 10 µM
[19] = second compound 3.16 µM, first compound 0.0316 µM
[20] = second compound 3.16 µM, first compound 0.1 µM
[21] = second compound 3.16 µM, first compound 0.316 µM
[22] = second compound 3.16 µM, first compound 1 µM
[23] = second compound 3.16 µM, first compound 3.16 µM
[24] = second compound 3.16 µM, first compound 10 µM
[25] = second compound 10 µM, first compound 0.0316 µM
[26] = second compound 10 µM, first compound 0.1 µM
[27] = second compound 10 µM, first compound 0.316 µM
[28] = second compound 10 µM, first compound 1 µM
[29] = second compound 10 µM, first compound 3.16 µM
[30] = second compound 10 µM, first compound 10 µM
[31] = second compound 0.1 µM, first compound 0.01 µM
[32] = second compound 0.316 µM, first compound 0.01 µM
[33] = second compound 1 µM, first compound 0.01 µM
[34] = second compound 3.16 µM, first compound 0.01 µM
[35] = second compound 10 µM, first compound 0.01 µM

| Structure (SMILES) | IC50 (second compound 0.1 µM) [nM] | IC50 (second compound 0.316 µM) [nM] | IC50 (second compound 1 µM) [nM] | IC50 (second compound 3.16 µM) [nM] | IC50 (second compound 10 µM) [nM] | viability, T/C [1] [%] | viability, T/C [2] [%] | viability, T/C [3] [%] | viability, T/C [4] [%] | viability, T/C [5] [%] | viability, T/C [7] [%] | viability, T/C [8] [%] | viability, T/C [9] [%] | viability, T/C [10] [%] | viability, T/C [13] [%] | viability, T/C [14] [%] | viability, T/C [19] [%] | viability, T/C [20] [%] | viability, T/C [25] [%] | viability, T/C [26] [%] | also measured |
| --- | --- | --- | --- | --- | --- | --- | --- | --- | --- | --- | --- | --- | --- | --- | --- | --- | --- | --- | --- | --- | --- |
| Cn1nccc1Nc1nccc(-c2cc3c(s2)C(C)(C)N(CCN2CCOCC2)C3=O)n1 + CC1OCC2(CCN(c3cnc(Sc4ccnc(N)c4Cl)c(N)n3)CC2)C1N | 803 | 331 | 97.8 | < 31.6 | < 31.6 | 94.3 | 85.4 | 70 | 48.6 | 21.4 | 85.2 | 71.6 | 51.8 | 30.8 | 62.9 | 48.4 | 40.2 | 35.4 | 29.6 | 35.7 | viability, T/C [6]: 24.1%; viability, T/C [11]: 21.8%; viability, T/C [12]: 20.5%; viability, T/C [15]: 36%; viability, T/C [16]: 21.2%; viability, T/C [17]: 18.1%; viability, T/C [18]: 18.7%; viability, T/C [21]: 31.9%; viability, T/C [22]: 15.7%; viability, T/C [23]: 14.9%; viability, T/C [24]: 16.6%; viability, T/C [27]: 18.7%; viability, T/C [28]: 17.1%; viability, T/C [29]: 13.7%; viability, T/C [30]: 11.9% |
| CC(=O)OC12COC1CC(O)C1(C)C(=O)C(O)C3=C(C)C(OC(=O)C(O)C(NC(=O)OC(C)(C)C)c4ccccc4)CC(O)(C(OC(=O)c4ccccc4)C21)C3(C)C (stereo not given) + CNCc1ccccc1-c1csc(C(C)Nc2nc(C)nc3cc(OC)c(OC)cc23)c1 | < 10 | < 10 | < 10 | < 10 | < 10 | 35.2 | 38.1 | 35 | 34.9 | 45.7 | 33 | 38.1 | 31.7 | 29.2 | 28.4 | 28 | 0.11 | 0.07 | 1.3 | 0.1 | viability, T/C [31]: 36.4%; viability, T/C [32]: 34.3%; viability, T/C [11]: 37%; viability, T/C [33]: 34%; viability, T/C [15]: 33.6%; viability, T/C [16]: 39.8%; viability, T/C [17]: 42.4%; viability, T/C [34]: 26.4%; viability, T/C [21]: 0.09%; viability, T/C [22]: 0.11%; viability, T/C [23]: 34.9%; viability, T/C [35]: 3.3%; viability, T/C [27]: 0.14%; viability, T/C [28]: 30.4%; viability, T/C [29]: 2.73% |
| CN(C)C/C=C/C(=O)Nc1cc2c(Nc3ccc(F)c(Cl)c3)ncnc2cc1O[C@H]1CCOC1 + CNCc1ccccc1-c1csc(C(C)Nc2nc(C)nc3cc(OC)c(OC)cc23)c1 | > 100 | > 100 | > 100 | 0.515 | < 0.316 | 111 | 96.5 |  |  |  | 113 | 108 |  |  | 85.8 | 101 | 31.4 | 14 | 0.16 | 1.46 | viability, T/C (second compound 0.1 µM, first compound 0.000316 µM): 110%; viability, T/C (second compound 0.1 µM, first compound 0.001 µM): 106%; viability, T/C (second compound 0.1 µM, first compound 0.00316 µM): 111%; viability, T/C [31]: 115%; viability, T/C (second compound 0.316 µM, first compound 0.000316 µM): 124%; viability, T/C (second compound 0.316 µM, first compound 0.001 µM): 115%; viability, T/C (second compound 0.316 µM, first compound 0.00316 µM): 110%; viability, T/C [32]: 109%; viability, T/C (second compound 1 µM, first compound 0.000316 µM): 101%; viability, T/C (second compound 1 µM, first compound 0.001 µM): 105%; viability, T/C (second compound 1 µM, first compound 0.00316 µM): 101%; viability, T/C [33]: 99.8%; viability, T/C (second compound 3.16 µM, first compound 0.000316 µM): 73.8%; viability, T/C (second compound 3.16 µM, first compound 0.001 µM): 16.4%; viability, T/C (second compound 3.16 µM, first compound 0.00316 µM): 19.2%; viability, T/C [34]: 6.17%; viability, T/C (second compound 10 µM, first compound 0.000316 µM): 0.18%; viability, T/C (second compound 10 µM, first compound 0.001 µM): 0.14%; viability, T/C (second compound 10 µM, first compound 0.00316 µM): 0.15%; viability, T/C [35]: 0.15% |
| O=C(c1cc(Cc2n[nH]c(=O)c3ccccc23)ccc1F)N1CCN(C(=O)C2CC2)CC1 + CNCc1ccccc1-c1csc(C(C)Nc2nc(C)nc3cc(OC)c(OC)cc23)c1 | 7080 | 6810 | 6100 | < 31.6 | < 31.6 | 105 | 106 | 97.6 | 86 | 65.7 | 85.7 | 84.3 | 83.2 | 85.3 | 84.7 | 85.3 | 35.1 | 35.4 | 0.17 | 0.21 | viability, T/C [6]: 43.3%; viability, T/C [11]: 65.9%; viability, T/C [12]: 42.1%; viability, T/C [15]: 78.9%; viability, T/C [16]: 83.2%; viability, T/C [17]: 59.5%; viability, T/C [18]: 42.8%; viability, T/C [21]: 28.4%; viability, T/C [22]: 0.6%; viability, T/C [23]: 42.3%; viability, T/C [24]: 0.43%; viability, T/C [27]: 29.1%; viability, T/C [28]: 0.15%; viability, T/C [29]: 0.14%; viability, T/C [30]: 1.69% |
